The IC50 is the concentration that gives 50% inhibition. By viability, T/C is commonly meant the ratio of treated to control.

“And” between values parts separate entries of the source, which are not always exact repeats. Identical values can stand only once. Bounds are passed on as bounds.

This note sets out measurements from PubChem BioAssay AID1918955 (Molecular Pharmacology Branch, DTP, NCI, 2023).

The test has as its system NCI/ADR-RES complex spheroid viability. Kind of test: Anticancer human tumor NCI/ADR-RES cell line growth inhibition.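 As to all read-outs here: spheroids exposed to compounds for 7 days.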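 As to viability, T/C: 100% = DMSO vehicle treated spheroids.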 Particulars: for viability, T/C: stronger effect = lower value. The method, boiled down: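 Multicellular complex spheroids of tumor cells with human endothelial cells (HUVEC) and mesenchymal stem cells; the LSD1 inhibitor iadademstat was combined with standard-of-care or investigational agents. Top concentration at or near clinical Cmax, half-log dilutions; final DMSO ≤0.25%.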

[1] abbreviates: curve of first compound, second compound 0.1 µM.
Setting [2] is: curve of first compound, second compound 0.316 µM.
The mark [3] stands for this setting: curve of first compound, second compound 1 µM.
[4] abbreviates: curve of first compound, second compound 3.16 µM.
Where [5] appears, read: curve of first compound, second compound 10 µM.
Setting [6] is: second compound 0.1 µM, first compound 0.0316 µM.
The mark [7] stands for this setting: second compound 0.1 µM, first compound 0.1 µM.
The mark [8] stands for this setting: second compound 0.1 µM, first compound 0.316 µM.
The mark [9] stands for this setting: second compound 0.1 µM, first compound 1 µM.
[10] abbreviates: second compound 0.1 µM, first compound 3.16 µM.
The mark [11] stands for this setting: second compound 0.1 µM, first compound 10 µM.
The mark [12] stands for this setting: second compound 0.316 µM, first compound 0.0316 µM.
The mark [13] stands for this setting: second compound 0.316 µM, first compound 0.1 µM.
[14] abbreviates: second compound 0.316 µM, first compound 0.316 µM.
The mark [15] stands for this setting: second compound 0.316 µM, first compound 1 µM.
Setting [16] is: second compound 0.316 µM, first compound 3.16 µM.
Setting [17] is: second compound 0.316 µM, first compound 10 µM.
[18] abbreviates: second compound 1 µM, first compound 0.0316 µM.
[19] abbreviates: second compound 1 µM, first compound 0.1 µM.
Where [20] appears, read: second compound 1 µM, first compound 0.316 µM.
The mark [21] stands for this setting: second compound 1 µM, first compound 1 µM.
Setting [22] is: second compound 1 µM, first compound 3.16 µM.
The mark [23] stands for this setting: second compound 1 µM, first compound 10 µM.
Setting [24] is: second compound 3.16 µM, first compound 0.0316 µM.
Setting [25] is: second compound 3.16 µM, first compound 0.1 µM.
Setting [26] is: second compound 3.16 µM, first compound 0.316 µM.
Setting [27] is: second compound 3.16 µM, first compound 1 µM.
Where [28] appears, read: second compound 3.16 µM, first compound 3.16 µM.
Where [29] appears, read: second compound 3.16 µM, first compound 10 µM.
Setting [30] is: second compound 10 µM, first compound 0.0316 µM.
The mark [31] stands for this setting: second compound 10 µM, first compound 0.1 µM.
Setting [32] is: second compound 10 µM, first compound 0.316 µM.
Setting [33] is: second compound 10 µM, first compound 1 µM.
The mark [34] stands for this setting: second compound 10 µM, first compound 3.16 µM.
Where [35] appears, read: second compound 10 µM, first compound 10 µM.

Regarding `CC1COCCN1c1cc(C2(S(C)(=N)=O)CC2)nc(-c2ccnc3[nH]ccc23)n1` (stereo not drawn) + NC1CC1c1ccc(-c2cccc(O)c2)cc1, the IC50 came out at 7 µM under setting [1]; 9.41 µM under setting [2]; 6.18 µM under setting [3]; 6.48 µM under setting [4]; 5.36 µM under setting [5]. Also, the viability, T/C was 108% under setting [6]; 108% under setting [7]; 97.4% under setting [8]; 90% under setting [9]; 71.5% under setting [10]; 40.4% under setting [11]. In addition, the viability, T/C is, setting by setting: under setting [12], 110%; under setting [13], 104%; under setting [14], 103%; under setting [15], 91.8%; under setting [16], 73.2%; under setting [17], 48.7%. For the same molecule, the viability, T/C reads like this: under setting [18], 96.4%; under setting [19], 97.4%; under setting [20], 93.8%; under setting [21], 90.1%; under setting [22], 64.8%; under setting [23], 39.4%. In addition, the viability, T/C by setting is: under setting [24], 101%; under setting [25], 95.1%; under setting [26], 95.8%; under setting [27], 86%; under setting [28], 65.4%; under setting [29], 40.6%. For the same molecule, the viability, T/C under setting [30] was 93.2%; the viability, T/C under setting [31] was 94.1%; the viability, T/C under setting [32] was 84.9%; the viability, T/C under setting [33] was 71.6%; the viability, T/C under setting [34] was 61.3%; the viability, T/C under setting [35] is 38.5%.
`O=C(c1cc(Cc2n[nH]c(=O)c3ccccc23)ccc1F)N1CCN(C(=O)C2CC2)CC1` + NC1CC1c1ccc(-c2cccc(O)c2)cc1: the IC50 was over 10 µM under setting [1]; over 10 µM under setting [2]; over 10 µM under setting [3]; over 10 µM under setting [4]; over 10 µM under setting [5]. Moreover, the viability, T/C was 112% under setting [6]; 108% under setting [7]; 107% under setting [8]; 105% under setting [9]; 99.5% under setting [10]; 91.8% under setting [11]. For the same molecule, the viability, T/C under setting [12] was 111%; the viability, T/C under setting [13] was 115%; the viability, T/C under setting [14] was 108%; the viability, T/C under setting [15] is 103%; the viability, T/C under setting [16] is 106%; the viability, T/C under setting [17] was 95%. Further, the viability, T/C under setting [18] is 106%; the viability, T/C under setting [19] was 106%; the viability, T/C under setting [20] is 103%; the viability, T/C under setting [21] is 104%; the viability, T/C under setting [22] is 99.4%; the viability, T/C under setting [23] was 80.1%. The viability, T/C under setting [24] was 110%; the viability, T/C under setting [25] was 111%; the viability, T/C under setting [26] is 103%; the viability, T/C under setting [27] was 97.3%; the viability, T/C under setting [28] was 96.7%; the viability, T/C under setting [29] was 88.6%. Further, the viability, T/C is 91.8% under setting [30]; 95.3% under setting [31]; 96.4% under setting [32]; 94.4% under setting [33]; 88.7% under setting [34]; 74.5% under setting [35].
Turning to `NC1CC1c1ccc(-c2cccc(O)c2)cc1` (stereo not drawn), the viability, T/C was 99.3% and 104% (compound 0.1 µM); 105% [middle of 24 runs] (compound 0.316 µM); 99.4% [middle of 24 runs] (compound 1 µM); 97.5% [middle of 25 runs] (compound 3.16 µM); 86.9% [middle of 25 runs] (compound 10 µM). For the same molecule, the IC50 (compound alone, run of 12/07/2021) was over 10 µM.
Regarding `Nc1ccn(C2OC(CO)C(O)C2(F)F)c(=O)n1` (stereo not drawn) + NC1CCC(NC2CC2c2ccccc2)CC1, the IC50 was under 0.000949 µM under setting [1]; under 0.000949 µM under setting [2]; under 0.000949 µM under setting [3]; under 0.000949 µM under setting [4]; under 0.000949 µM under setting [5]. The viability, T/C was 2.74% (second compound 0.1 µM, first compound 0.000949 µM); 4.03% (second compound 0.1 µM, first compound 0.003 µM); 2.54% (second compound 0.1 µM, first compound 0.00949 µM); 2.78% (second compound 0.1 µM, first compound 0.03 µM); 2.85% (second compound 0.1 µM, first compound 0.0949 µM); 3.22% (second compound 0.1 µM, first compound 0.3 µM). The viability, T/C was 4.09% (second compound 0.316 µM, first compound 0.000949 µM); 4.64% (second compound 0.316 µM, first compound 0.003 µM); 2.74% (second compound 0.316 µM, first compound 0.00949 µM); 3.17% (second compound 0.316 µM, first compound 0.03 µM); 1.83% (second compound 0.316 µM, first compound 0.0949 µM); 5.17% (second compound 0.316 µM, first compound 0.3 µM). Moreover, the viability, T/C by setting is: (second compound 1 µM, first compound 0.000949 µM) 3.13%; (second compound 1 µM, first compound 0.003 µM) 3.5%; (second compound 1 µM, first compound 0.00949 µM) 3.1%; (second compound 1 µM, first compound 0.03 µM) 2.71%; (second compound 1 µM, first compound 0.0949 µM) 2.01%; (second compound 1 µM, first compound 0.3 µM) 1.76%. Further, the viability, T/C was 2.3% (second compound 3.16 µM, first compound 0.000949 µM); 3.42% (second compound 3.16 µM, first compound 0.003 µM); 2.96% (second compound 3.16 µM, first compound 0.00949 µM); 1.75% (second compound 3.16 µM, first compound 0.03 µM); 0.86% (second compound 3.16 µM, first compound 0.0949 µM); 2.49% (second compound 3.16 µM, first compound 0.3 µM). The viability, T/C runs as follows: (second compound 10 µM, first compound 0.000949 µM) 1.69%; (second compound 10 µM, first compound 0.003 µM) 2.17%; (second compound 10 µM, first compound 0.00949 µM) 2.05%; (second compound 10 µM, first compound 0.03 µM) 2.1%; (second compound 10 µM, first compound 0.0949 µM) 5.19%; (second compound 10 µM, first compound 0.3 µM) 0.69%.
Consider `CCN(c1cc(-c2ccc(CN3CCOCC3)cc2)cc(C(=O)NCc2c(C)cc(C)[nH]c2=O)c1C)C1CCOCC1`, for which the viability, T/C reads like this: (compound 0.00949 µM) 99.6% and 106%; (compound 0.03 µM) 98.7% and 102%; (compound 0.0949 µM) 98.2% and 104%; (compound 0.3 µM) 99% and 97.8%; (compound 0.949 µM) 91.6% and 97.3%; (compound 3 µM) 86.3% and 88%. For the same molecule, for the setting “curve of compound”, the IC50 was over 3 µM.
